According to US9499535B2, “Kinase inhibitors” (ORIGENIS GMBH, priority 2011, dated 2016):

Legend:
SYK kinase = target: T1, SYK kinase (Homo sapiens, UniProt P43405); experiment: SYK assay (OMNIA Kinase Assay, Invitrogen); assay type: biochemical; settings: apparent Ki calculated from the IC50 using the Cheng-Prusoff equation; 1 mM ATP, 10 μM Peptide Substrate; read-out: SYK Activities: Ki
T1 construct: purchased Invitrogen, Carlsbad
Summary of the method: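 Continuous SOX-fluorescence (Omnia) readout of Tyr 7 peptide (10 μM) phosphorylation with 1 mM ATP and 0.2 mM DTT at 30° C, started by SYK addition. Fluorescence (λex 360/λem 485 nm) was read every 30 s for 30 min. IC50 from velocity vs concentration; apparent Ki via Cheng-Prusoff.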

LRRK2 = LRRK2 (Homo sapiens, UniProt Q5S007); experiment: LRRK2 assay (LanthaScreen Eu Kinase Binding Assay); settings: 5 nM LRRK2, 10 nM tracer 236, RT 1 h; read-out: LRRK2 Activites: IC50
Summary of the method: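 Kinase binding was detected by europium anti-tag antibody FRET with a competing tracer, so inhibitor binding lowers the FRET signal. IC50 came from a variable-slope sigmoidal fit of emission ratio against inhibitor concentration.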

MYLK = MYLK (Homo sapiens, UniProt Q15746); experiment: MYLK assay (LanthaScreen Eu Kinase Binding Assay); settings: 5 nM MYLK, 30 nM tracer 236, RT 1 h; read-out: MYLK Activites: IC50
Summary of the method: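 TR-FRET tracer-displacement binding: 5 nM MYLK with 2 nM Eu-anti-GST antibody and 30 nM tracer 236 in kinase buffer A, 1 h at RT. The 665/615 nm emission ratio was plotted against inhibitor concentration; IC50 from variable-slope sigmoidal fit.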

Sequence of MYLK (Q15746 whole entry): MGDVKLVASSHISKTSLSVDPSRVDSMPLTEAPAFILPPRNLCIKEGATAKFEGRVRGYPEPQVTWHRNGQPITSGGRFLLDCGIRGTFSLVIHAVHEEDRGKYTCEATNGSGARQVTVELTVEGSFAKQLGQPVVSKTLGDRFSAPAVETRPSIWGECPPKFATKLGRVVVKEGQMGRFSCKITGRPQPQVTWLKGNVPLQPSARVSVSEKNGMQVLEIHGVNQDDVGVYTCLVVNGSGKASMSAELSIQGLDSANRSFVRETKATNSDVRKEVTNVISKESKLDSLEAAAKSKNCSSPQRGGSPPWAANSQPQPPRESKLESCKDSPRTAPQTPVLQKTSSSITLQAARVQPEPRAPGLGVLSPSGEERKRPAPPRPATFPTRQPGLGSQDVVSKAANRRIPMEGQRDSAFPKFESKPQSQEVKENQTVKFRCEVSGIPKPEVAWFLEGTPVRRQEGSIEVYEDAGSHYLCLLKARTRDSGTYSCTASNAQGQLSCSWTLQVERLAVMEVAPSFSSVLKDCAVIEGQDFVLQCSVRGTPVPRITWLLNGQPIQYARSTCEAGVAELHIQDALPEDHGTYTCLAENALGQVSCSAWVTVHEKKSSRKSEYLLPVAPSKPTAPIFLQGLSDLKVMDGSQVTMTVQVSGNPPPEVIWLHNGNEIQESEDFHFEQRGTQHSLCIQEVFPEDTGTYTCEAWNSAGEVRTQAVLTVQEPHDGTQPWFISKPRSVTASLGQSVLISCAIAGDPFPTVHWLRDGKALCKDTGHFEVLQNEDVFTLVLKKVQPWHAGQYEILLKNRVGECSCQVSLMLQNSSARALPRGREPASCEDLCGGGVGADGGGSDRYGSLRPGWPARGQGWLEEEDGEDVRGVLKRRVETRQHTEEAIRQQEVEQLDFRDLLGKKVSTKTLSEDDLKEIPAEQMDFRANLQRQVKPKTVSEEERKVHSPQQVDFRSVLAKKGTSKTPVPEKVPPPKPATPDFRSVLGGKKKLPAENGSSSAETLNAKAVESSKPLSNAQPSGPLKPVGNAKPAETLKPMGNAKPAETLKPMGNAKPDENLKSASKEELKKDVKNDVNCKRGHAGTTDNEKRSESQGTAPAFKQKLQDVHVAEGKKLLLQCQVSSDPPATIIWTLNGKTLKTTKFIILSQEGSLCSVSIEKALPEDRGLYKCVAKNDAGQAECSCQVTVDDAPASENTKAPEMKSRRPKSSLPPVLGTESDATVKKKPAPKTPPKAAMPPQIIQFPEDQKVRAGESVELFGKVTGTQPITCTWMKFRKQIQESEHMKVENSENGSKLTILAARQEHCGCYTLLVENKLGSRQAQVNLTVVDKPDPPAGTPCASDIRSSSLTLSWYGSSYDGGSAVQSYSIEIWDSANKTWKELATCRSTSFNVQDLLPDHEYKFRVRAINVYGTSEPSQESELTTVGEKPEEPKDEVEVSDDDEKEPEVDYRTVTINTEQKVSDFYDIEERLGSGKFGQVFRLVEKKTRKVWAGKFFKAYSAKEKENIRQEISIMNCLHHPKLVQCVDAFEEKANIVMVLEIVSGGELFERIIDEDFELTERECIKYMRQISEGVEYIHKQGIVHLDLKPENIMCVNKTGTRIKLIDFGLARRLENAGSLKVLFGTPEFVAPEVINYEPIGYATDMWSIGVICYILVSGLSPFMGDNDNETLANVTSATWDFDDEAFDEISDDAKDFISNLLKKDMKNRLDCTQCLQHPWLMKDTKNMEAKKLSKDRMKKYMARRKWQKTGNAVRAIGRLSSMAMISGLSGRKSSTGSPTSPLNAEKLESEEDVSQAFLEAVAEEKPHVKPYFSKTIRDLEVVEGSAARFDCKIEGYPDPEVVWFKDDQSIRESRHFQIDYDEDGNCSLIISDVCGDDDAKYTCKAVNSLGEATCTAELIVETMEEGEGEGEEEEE
Sequence of LRRK2 (Q5S007 970-2527 limits assumed): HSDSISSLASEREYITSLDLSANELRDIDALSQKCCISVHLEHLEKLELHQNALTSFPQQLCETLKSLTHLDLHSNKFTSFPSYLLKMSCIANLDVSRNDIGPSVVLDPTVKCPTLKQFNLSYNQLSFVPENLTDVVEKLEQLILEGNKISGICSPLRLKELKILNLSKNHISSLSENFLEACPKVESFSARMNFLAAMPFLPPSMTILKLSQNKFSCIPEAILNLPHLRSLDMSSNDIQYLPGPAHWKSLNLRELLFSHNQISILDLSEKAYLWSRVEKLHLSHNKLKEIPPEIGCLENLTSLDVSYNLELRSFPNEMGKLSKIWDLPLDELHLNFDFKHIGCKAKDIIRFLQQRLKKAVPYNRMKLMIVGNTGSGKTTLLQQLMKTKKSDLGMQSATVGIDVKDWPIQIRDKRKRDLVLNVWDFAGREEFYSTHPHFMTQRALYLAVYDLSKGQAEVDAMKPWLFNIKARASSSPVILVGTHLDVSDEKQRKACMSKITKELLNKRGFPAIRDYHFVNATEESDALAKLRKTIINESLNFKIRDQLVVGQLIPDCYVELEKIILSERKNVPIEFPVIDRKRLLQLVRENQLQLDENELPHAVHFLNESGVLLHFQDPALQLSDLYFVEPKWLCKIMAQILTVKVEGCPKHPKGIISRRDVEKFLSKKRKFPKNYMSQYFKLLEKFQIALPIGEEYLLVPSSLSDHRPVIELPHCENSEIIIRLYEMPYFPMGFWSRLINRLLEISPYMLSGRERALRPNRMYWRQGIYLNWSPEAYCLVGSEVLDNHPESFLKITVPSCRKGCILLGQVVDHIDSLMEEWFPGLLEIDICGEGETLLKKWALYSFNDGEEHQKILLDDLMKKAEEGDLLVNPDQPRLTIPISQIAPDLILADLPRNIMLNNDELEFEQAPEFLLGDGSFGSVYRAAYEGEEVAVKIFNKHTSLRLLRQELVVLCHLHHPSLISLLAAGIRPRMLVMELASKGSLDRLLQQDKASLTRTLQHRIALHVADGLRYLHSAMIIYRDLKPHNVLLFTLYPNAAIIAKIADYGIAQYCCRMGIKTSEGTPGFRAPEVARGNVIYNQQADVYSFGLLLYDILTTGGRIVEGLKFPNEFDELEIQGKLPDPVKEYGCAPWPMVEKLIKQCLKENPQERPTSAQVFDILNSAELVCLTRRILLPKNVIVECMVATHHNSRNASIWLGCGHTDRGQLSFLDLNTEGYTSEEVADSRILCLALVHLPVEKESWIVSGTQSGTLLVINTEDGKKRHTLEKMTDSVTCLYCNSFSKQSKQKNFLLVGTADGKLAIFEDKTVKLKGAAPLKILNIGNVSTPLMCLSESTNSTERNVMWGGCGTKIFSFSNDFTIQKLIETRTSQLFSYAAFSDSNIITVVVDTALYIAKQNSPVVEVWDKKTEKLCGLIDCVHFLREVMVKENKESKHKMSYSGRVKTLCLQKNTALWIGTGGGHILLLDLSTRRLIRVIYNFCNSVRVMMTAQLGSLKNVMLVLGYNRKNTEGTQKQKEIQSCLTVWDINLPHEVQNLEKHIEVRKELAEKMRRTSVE

Structure (SMILES)	Ki (SYK kinase)	IC50 (LRRK2)	IC50 (MYLK)
COc1cccc2c1nc(Nc1ccc(N3CCN(C)CC3)cc1)c1n[nH]cc12 [Example #166, (6-Methoxy-2H-pyrazolo[3,4-c]quinolin-4-yl)-[4-(4-methyl-piperazin-1-yl)-phenyl]-amine]	10 to 100 nM	100 to 1000 nM	< 5000 nM
COc1ccc(Nc2nc3c(OC)cccc3c3c[nH]nc23)cc1OC [Example #167, (3,4-Dimethoxy-phenyl)-(6-methoxy-2H-pyrazolo[3,4-c]quinolin-4-yl)-amine]	10 to 100 nM	100 to 1000 nM	< 5000 nM
COc1cccc2c1nc(Nc1cc(C3CC3)[nH]n1)c1n[nH]cc12 [Example #169, (5-Cyclopropyl-1H-pyrazol-3-yl)-(6-methoxy-2H-pyrazolo[3,4-c]quinolin-4-yl)-amine]	< 10 nM	10 to 100 nM	< 5000 nM
COc1cccc2c1nc(Nc1ccc3cn[nH]c3c1)c1n[nH]cc12 [Example #171, (1H-Indazol-6-yl)-(6-methoxy-2H-pyrazolo[3,4-c]quinolin-4-yl)-amine]	10 to 100 nM	100 to 1000 nM	< 5000 nM
COc1ccc2c(c1)nc(Nc1ccc3cn[nH]c3c1)c1n[nH]cc12 [Example #172, (1H-Indazol-6-yl)-(7-methoxy-2H-pyrazolo[3,4-c]quinolin-4-yl)-amine]	10 to 100 nM	100 to 1000 nM	< 5000 nM
COc1ccc2nc(Nc3ccc(N4CCN(C5CC5)CC4)cc3)c3n[nH]cc3c2c1 [Example #179, [4-(4-Cyclopropyl-piperazin-1-yl)-phenyl]-(8-methoxy-2H-pyrazolo[3,4-c]quinolin-4-yl)-amine]	10 to 100 nM	100 to 1000 nM	< 5000 nM
COc1ccc2nc(Nc3ccc(N4CCN(C)CC4)c(C)c3)c3n[nH]cc3c2c1 [Example #183, (8-Methoxy-2H-pyrazolo[3,4-c]quinolin-4-yl)-[3-methyl-4-(4-methyl-piperazin-1-yl)-phenyl]-amine]	10 to 100 nM	10 to 100 nM	< 5000 nM
COc1ccc2nc(Nc3ccc(N4CCNCC4)cc3)c3n[nH]cc3c2c1 [Example #184, (8-Methoxy-2H-pyrazolo[3,4-c]quinolin-4-yl)-(4-piperazin-1-yl-phenyl)-amine]	< 10 nM	100 to 1000 nM	< 5000 nM
COc1ccc2nc(Nc3ccc(CN(C)C)cc3)c3n[nH]cc3c2c1 [Example #185, (4-Dimethylaminomethyl-phenyl)-(8-methoxy-2H-pyrazolo[3,4-c]quinolin-4-yl)-amine]	10 to 100 nM	100 to 1000 nM	< 5000 nM
CCN1CCN(c2ccc(Nc3nc4ccc(OC)cc4c4c[nH]nc34)cc2)CC1 [Example #187, [4-(4-Ethyl-piperazin-1-yl)-phenyl]-(8-methoxy-2H-pyrazolo[3,4-c]quinolin-4-yl)-amine]	< 10 nM	10 to 100 nM	< 5000 nM
COc1ccc2nc(Nc3ccc4c(c3)NC(=O)CCC4)c3n[nH]cc3c2c1 [Example #188, 8-(8-Methoxy-2H-pyrazolo[3,4-c]quinolin-4-ylamino)-1,3,4,5-tetrahydro-benzo[b]azepin-2-one]	< 10 nM	10 to 100 nM	< 5000 nM
COc1ccc2nc(Nc3ccc(N(C)C4CCN(C)CC4)cc3)c3n[nH]cc3c2c1 [Example #192, N-(8-Methoxy-2H-pyrazolo[3,4-c]quinolin-4-yl)-N′-methyl-N′-(1-methyl-piperidin-4-yl)-benzene-1,4-diamine]	10 to 100 nM	10 to 100 nM	< 5000 nM
COc1ccc2nc(Nc3ccc(CCN4CCOCC4)cc3)c3n[nH]cc3c2c1 [Example #193, (8-Methoxy-2H-pyrazolo[3,4-c]quinolin-4-yl)-[4-(2-morpholin-4-yl-ethyl)-phenyl]-amine]	10 to 100 nM	100 to 1000 nM	< 5000 nM
